Results taken from US10435361B2, “Kinase inhibitors” (Topivert Pharma Limited, priority 2013, dated 2019).

Experiments:
Type in all cases: cell-based
PBMCs [1] = assay: LPS-induced TNFα/IL-8 release in PBMC cells; settings: Homo sapiens, assay (b), read-out: IC50 Values for Inhibition of Cytokine Release PBMCs IL-8
Experimental: Peripheral blood mononuclear cells (PBMCs) from healthy subjects are separated from whole blood using a density gradient (Lymphoprep, Axis-Shield Healthcare). The PBMCs are seeded in 96 well plates and treated with compounds at the desired concentration for 2 hours before addition of 1 ng/mL LPS (Escherichia Coli 0111:B4 from Sigma Aldrich) for 24 hours under normal tissue culture conditions (37° C., 5% CO2). The supernatant is harvested for determination of IL-8 and TNFα concentrations by sandwich ELISA (Duo-set, R&D systems) and read on the fluorescence microplate reader (Varioskan® Flash, ThermoFisher Scientific).

PBMCs [2] = assay: IL-2 and IFN gamma release in CD3/CD28 stimulated PBMC cells; settings: Homo sapiens, assay (c)
Experimental: PBMCs from healthy subjects are separated from whole blood using a density gradient (Lymphoprep, Axis-Shield Healthcare). Cells are added to a 96 well plate pre-coated with a mixture of CD3/CD28 monoclonal antibodies (0.3 μg/mL eBioscience and 3 μg/mL BD Pharmingen respectively). Compound at the desired concentration is then added to the wells and the plate left for 3 days under normal tissue culture conditions. […] The IC50 is determined from the dose response curve.

PBMCs [3] = assay: Cell mitosis assay in PBMCs; settings: Homo sapiens, PBMC, 5 μg/mL
Experimental: Peripheral blood mononucleocytes (PBMCs) from healthy subjects are separated from whole blood (Quintiles, London, UK) using a density gradient (Histopaque®-1077, Sigma-Aldrich, Poole, UK). The PBMCs (3 million cells per sample) are subsequently treated with 2% PHA (phytohaemagglutinin, Sigma-Aldrich, Poole, UK) for 48 hr, followed by a 20 hr exposure to varying concentrations of test compounds. At 2 hr before collection, PBMCs are treated with demecolcine (0.1 μg/mL; Invitrogen, Paisley, UK) to arrest cells in metaphase. To observe mitotic cells, PBMCs are permeabilised and fixed by adding Intraprep (50 μL; Beckman Coulter, France), and stained with anti-phospho-histone 3 (0.26 ng/L; #9701; Cell Signalling, Danvers, Mass.) and propidium iodide (1 mg/mL; Sigma-Aldrich, Poole, UK) as previously described (Muehlbauer P. A. and Schuler M. J., Mutation Research, 2003, 537:117-130). Fluorescence is observed using an ATTUNE flow cytometer (Invitrogen, Paisley, UK), gating for lymphocytes.

[4] = read-out: IC50 Values for Inhibition of Cytokine Release PBMCs IL-2
[5] = read-out: IC50 Values for Inhibition of Cytokine Release PBMCs IFNγ

Row | Compound | IC50 (PBMCs [1]) [nM] | IC50 (PBMCs [2]; [4]) [nM] | inhibition at 5 µg/mL (PBMCs [3]) [%] | IC50 (PBMCs [2]; [5]) [nM]
1 | COCCOCCOCCOc1cc(Nc2nccc(Oc3ccc(NC(=O)Nc4cc(C(C)(C)C)cc(NS(=O)(=O)N5CCOCC5)c4OC)c4ccccc34)n2)cc(OC)c1 [83(b), N-(5-(tert-butyl)-2-methoxy-3-(3-(4-((2-((3-methoxy-5-(2-(2-(2-methoxyethoxy)ethoxy)-ethoxy)phenyl)amino)pyrimidin-4-yl)oxy)naphthalen-1-yl)ureido)phenyl)morpholine-4-sulfonamide] | 3.7 | 109 |  | 
2 | COc1cc(Nc2nccc(Oc3ccc(NC(=O)Nc4cc(C(C)(C)C)cc(NS(C)(=O)=O)c4OC)c4ccccc34)n2)cc(OCCOCCOCCO)c1 [83(c), N-(5-(tert-butyl)-3-(3-(4-((2-((3-(2-(2-(2-hydroxyethoxy)ethoxy)ethoxy)-5-methoxyphenyl)-amino)pyrimidin-4-yl)oxy)naphthalen-1-yl)ureido)-2-methoxyphenyl)methanesulfonamide] | 1.8 |  | 57.1 | 
3 | COc1cc(Nc2cc(Oc3ccc(NC(=O)Nc4cc(C(C)(C)C)cc(NS(C)(=O)=O)c4OC)c4ccccc34)ccn2)cc(C(=O)NCCN2CCOC(C)(C)C2)c1 [85(m), 3-[[4-[[4-[[5-tert-Butyl-3-(methanesulfonamido)-2-methoxyphenyl]-carbamoylamino]-1-naphthyl]oxy]-2-pyridyl]amino]-N-[2-(2,2-dimethylmorpholin-4-yl)ethyl]-5-methoxybenzamide] | 1.8 |  | 26.4 | 
4 | COc1cc(Nc2cc(Oc3ccc(NC(=O)Nc4cc(C(C)(C)C)cc(NS(C)(=O)=O)c4OC)c4ccccc34)ccn2)cc(C(=O)NCCN2C[C@@H](C)O[C@@H](C)C2)c1 [85(n), 3-[[4-[[4-[[5-tert-Butyl-3-(methanesulfonamido)-2-methoxyphenyl]-carbamoylamino]-1-naphthyl]oxy]-2-pyridyl]amino]-N-[2-[(2R,6S)-2,6-dimethylmorpholin-4-yl]ethyl]-5-methoxybenzamide] | 1.9 |  | 26.6 | 
5 | COCCOCCNC(=O)c1cc(Nc2cc(Oc3ccc(NC(=O)Nc4cc(C(C)(C)C)cc(NS(C)(=O)=O)c4OC)c4ccccc34)ccn2)cc(OC)c1 [85(u), 3-[[4-[[4-[[5-tert-Butyl-3-(methanesulfonamido)-2-methoxyphenyl]-carbamoylamino]-1-naphthyl]oxy]-2-pyridyl]amino]-5-methoxy-N-[2-(2-methoxyethoxy)-ethyl]benzamide] | 1.4 |  | 38.4 | 
6 | COc1cc(Nc2nccc(Oc3ccc(NC(=O)Nc4cc(C(C)(C)C)cc(NS(C)(=O)=O)c4OC)c4ccccc34)n2)cc(C(=O)C2CC2)c1 [Example 50, N-(5-(tert-Butyl)-3-(3-(4-((2-((3-(cyclopropanecarbonyl)-5-methoxyphenyl)amino)-pyrimidin-4-yl)oxy)naphthalen-1-yl)ureido)-2-methoxyphenyl)methanesulfonamide] | 12.1 |  |  | 
7 | C#Cc1cc(Nc2nccc(Oc3ccc(NC(=O)Nc4cc(C(C)(C)C)cc(C(=O)NC)c4OC)c4ccccc34)n2)cc(C(=O)N[C@@H](C)CN2CCOCC2)c1 [Example 60, (S)-5-(tert-Butyl)-3-(3-(4-((2-((3-ethynyl-5-((1-morpholinopropan-2-yl)carbamoyl)phenyl)amino)pyrimidin-4-yl)oxy)naphthalen-1-yl)ureido)-2-methoxy-N-methylbenzamide] | 2 |  |  | 
8 | C#Cc1cc(Nc2nccc(Oc3ccc(NC(=O)Nc4cc(C(C)(C)C)cc(C(=O)NC)c4OC)c4ccccc34)n2)cc(C(=O)N[C@H](C)CN2CCOCC2)c1 [Example 61, (R)-5-(tert-Butyl)-3-(3-(4-((2-((3-ethynyl-5-((1-morpholinopropan-2-yl)carbamoyl)phenyl)amino)pyrimidin-4-yl)oxy)naphthalen-1-yl)ureido)-2-methoxy-N-methylbenzamide] | 2.1 |  |  | 
9 | C#Cc1cc(Nc2cc(Oc3ccc(NC(=O)Nc4cc(C(N)=O)cc(C(C)(C)C)c4)c4ccccc34)ccn2)cc(C(=O)NCCOCCOCCOC)c1 [Example 62, 3-((4-((4-(3-(3-(tert-Butyl)-5-carbamoylphenyl)ureido)naphthalen-1-yl)oxy)pyridin-2-yl)amino)-5-ethynyl-N-(2-(2-(2-methoxyethoxy)ethoxy)ethyl)benzamide] | 4.6 | 48.7 |  | 32.2
10 | COCCOCCOCCOc1cc(Nc2nccc(Oc3ccc(NC(=O)Nc4cc(C(C)(C)C)cc5[nH]c(=O)oc45)c4ccccc34)n2)cc(OC)c1 [Example 63, 1-(5-(tert-Butyl)-2-oxo-2,3-dihydrobenzo[d]oxazol-7-yl)-3-(4-((2-((3-methoxy-5-(2-(2-(2-methoxyethoxy)ethoxy)ethoxy)phenyl)amino)pyrimidin-4-yl)oxy)naphthalen-1-yl)urea] | 17.3 |  |  | 
11 | COCCOCCOCCOc1cc(Nc2nccc(Oc3ccc(NC(=O)Nc4cc(C(C)(C)C)cc5nc(C)oc45)c4ccccc34)n2)cc(OC)c1 [Example 64, 1-(5-(tert-Butyl)-2-methylbenzo[d]oxazol-7-yl)-3-(4-((2-((3-methoxy-5-(2-(2-(2-methoxy-ethoxy)ethoxy)ethoxy)phenyl)amino)pyrimidin-4-yl)oxy)naphthalen-1-yl)urea] | 10.5 |  |  | 
12 | C#Cc1cc(Nc2cc(Oc3ccc(NC(=O)Nc4cc(C(C)(C)C)cc(NS(C)(=O)=O)c4OC)c4ccccc34)ccn2)cc(C(=O)N[C@H](C)COCCOCCOC)c1 [Example 68, (R)-3-((4-((4-(3-(5-(tert-Butyl)-2-methoxy-3-(methylsulfonamido)phenyl)ureido)-naphthalen-1-yl)oxy)pyridin-2-yl)amino)-5-ethynyl-N-(1-(2-(2-methoxyethoxy)ethoxy)-propan-2-yl)benzamide] | 2.8 | 220 |  | 68.8
13 | CCOc1c(NC(=O)Nc2ccc(Oc3ccnc(Nc4cc(OC)cc(OCCOCCOCCOC)c4)n3)c3ccccc23)cc(C(C)(C)C)cc1NS(C)(=O)=O [Example 69, N-(5-(tert-butyl)-2-ethoxy-3-(3-(4-((2-((3-methoxy-5-(2-(2-(2-methoxyethoxy)ethoxy)-ethoxy)phenyl)amino)pyrimidin-4-yl)oxy)naphthalen-1-yl)ureido)phenyl)methane-sulfonamide] | 1.6 |  |  | 2.2
14 | COCCOCCOCCOc1cc(Nc2cc(Oc3ccc(NC(=O)Nc4cc(C(C)(C)C)cc(C(=O)NC5COC5)c4OC)c4ccccc34)ccn2)cc(OC)c1 [Example 77, 5-(tert-Butyl)-2-methoxy-3-(3-(4-((2-((3-methoxy-5-(2-(2-(2-methoxyethoxy)ethoxy)ethoxy)-phenyl)amino)pyridin-4-yl)oxy)naphthalen-1-yl)ureido)-N-(oxetan-3-yl)benzamide] | 2 |  |  | 
15 | COc1c(NC(=O)Nc2ccc(Oc3ccnc(Nc4ccccc4)n3)c3ccccc23)cc(C(C)(C)C)cc1C(=O)NC1COC1 [Example 78, 5-(tert-Butyl)-2-methoxy-N-(oxetan-3-yl)-3-(3-(4-((2-(phenylamino)pyrimidin-4-yl)oxy)-naphthalen-1-yl)ureido)benzamide] | 14 |  |  | 
16 | COc1c(NC(=O)Nc2ccc(Oc3ccnc(Nc4ccccc4)c3)c(F)c2F)cc(C(C)(C)C)cc1C(=O)NC1COC1 [Example 82, 5-(tert-Butyl)-3-(3-(2,3-difluoro-4-((2-(phenylamino)pyridin-4-yl)oxy)phenyl)ureido)-2-methoxy-N-(oxetan-3-yl)benzamide] | 6.6 |  |  | 
